Drawing on US9695175B2, “Highly selective c-Met inhibitors as anticancer agents” (Crown Bioscience Inc. (Taiwan), priority 2012, dated 2017), this text covers IC50 for 41 compounds.

What is called IC50 is the concentration needed to halve the response being measured.

Assay [1] addresses c-Met protein in S114 cells (Homo sapiens (Human), UniProt P08581). Nature of the assay: S114 cell-based ELISA, phosphorylation of c-Met protein. As to conditions: 30 min compound incubation, phospho-c-Met ELISA. The protocol:
Cell-Based ELISA [Method] Use ELISA to measure the phosphorylation of c-Met protein in […] cells [Instrument] ENVISION plate reader of PerKinElmer […] [Procedure] […] cells are cultured in DMEM medium (containing 10% FBS). When cells reach 80% confluency, they are collected by trypsinization and centrifugation at 800 rpm for 5 min. The cells are re-suspended in DMEM and adjusted to a density of 500,000 cells/mL. A 96-well plate is pretreated with a solution of Firbronectin in PBS (5 μg/mL) at 100 μL per well for 2 hr. The cell suspension is split into the 96-well culture plate at 100 uL per well and incubated (37° C., 5% CO2) overnight. The capture antibody is diluted with 1/2 Tris-ammonium bicarbonate buffer (1:1000) and transferred into a 96-well absorption plate (70 μL per well) at 4° C. overnight. The solution is discarded and the plate is washed with blocking buffer, followed by adding blocking buffer (150 μL per well), and kept at room temperature for 1 hr. The medium in the 96-well culture plate is discarded and the plate is washed with DMEM (without FBS). Then 80 μL of DMEM (without FBS) and 20 μL of test compound solution at various concentrations in DMEM (without FBS) are added. The culture plate is kept in a culture incubator for 30 min (37° C., 5% CO2). The cell culture medium is discarded and the culture plate is washed with PBS, followed by adding lysis buffer (50 μL per well) and incubated at 4° C. for 20 min. The solution in the absorption plate is discarded and the plate is washed with binding buffer. To each well of the absorption plate is added binding buffer (50 μL) and lysate (40 μL) from the above culture plate; then the plate is incubated at room temperature for 2 hours. The culture medium is discarded and the plate is washed twice with binding buffer, followed by adding a solution of 1st antibody (diluted with binding buffer 1:1000, 100 μL per well) and incubated at 37° C. for 1 hr. The solution is discarded and the plate is washed twice with binding buffer. Then a solution of 2nd antibody is added (100 μL per well) and incubated at 37° C. for another hour. The medium is discarded and the plate is washed twice with binding buffer and once with PBS. To each well, 100 μL of A.B.T.S solution is added and incubated at 37° C. for 30 min. Then OD405 is analyzed on an ENVISION plate reader. This assay has a Minimum Significant Ratio (MSA) of 2-3. [Samples] All exemplified compounds and Crizotinib as the positive control [Data Analysis] Background (no cell lysate): 0.084 • Max (no test compound): 0.517 [formula] [Software] Use CBIS data analysis software to calculate IC50 values
A general note: In an ELISA, binding on a coated surface is turned into a signal by an enzyme label.

For assay [2], the target named is c-Met kinase (1038-1346AA) (Homo sapiens (Human), UniProt P08581). Nature of the assay: c-Met in vitro kinase assay (Lance Ultra ULight-TK). It counts as biochemical. As to conditions: c-Met kinase 12.5 nM, ATP 2.5 uM, 30° C.; read-out: c-Met Enzyme IC50. As to the method:
c-Met In Vitro Kinase Assay [Method] Use Lance@Ultra Ulight™-TK test kits from PerKinElmer to evaluate the inhibition of c-Met kinase by the compounds [Instrument] ENVISION plate reader of PerKinElmer […] Then ATP (final concentration 2.5 uM) and kinase substrate (final concentration 50 nM) are added. […] After 1 hr, the plate is read at 615 nm and 665 nm. The ratio of […] at 665 nm and 615 nm is calculated and used for the data analysis as follows. This assay has a Minimum Significant Ratio (MSA) of 2-3. [Samples] All exampled compounds and Crizotinib as the positive control [Data Analysis] Background—the ratio of 665 nm/615 nm (no enzyme):0.003285 • Max—the ratio of 665 nm/615 nm (no test compound):0.075356 [formula] [Software] Use CBIS data analysis software to calculate IC50 values

Sequence of c-Met kinase (1038-1346AA) (P08581 1038-1346): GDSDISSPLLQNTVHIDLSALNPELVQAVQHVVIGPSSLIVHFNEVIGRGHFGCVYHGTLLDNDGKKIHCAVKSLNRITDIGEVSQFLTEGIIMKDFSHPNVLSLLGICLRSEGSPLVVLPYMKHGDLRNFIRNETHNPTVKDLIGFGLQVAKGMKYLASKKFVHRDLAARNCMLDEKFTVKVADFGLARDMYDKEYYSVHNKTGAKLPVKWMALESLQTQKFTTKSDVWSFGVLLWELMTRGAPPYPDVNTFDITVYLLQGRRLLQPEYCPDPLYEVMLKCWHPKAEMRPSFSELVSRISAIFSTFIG
Sequence of c-Met protein in S114 cells (P08581 25-1390): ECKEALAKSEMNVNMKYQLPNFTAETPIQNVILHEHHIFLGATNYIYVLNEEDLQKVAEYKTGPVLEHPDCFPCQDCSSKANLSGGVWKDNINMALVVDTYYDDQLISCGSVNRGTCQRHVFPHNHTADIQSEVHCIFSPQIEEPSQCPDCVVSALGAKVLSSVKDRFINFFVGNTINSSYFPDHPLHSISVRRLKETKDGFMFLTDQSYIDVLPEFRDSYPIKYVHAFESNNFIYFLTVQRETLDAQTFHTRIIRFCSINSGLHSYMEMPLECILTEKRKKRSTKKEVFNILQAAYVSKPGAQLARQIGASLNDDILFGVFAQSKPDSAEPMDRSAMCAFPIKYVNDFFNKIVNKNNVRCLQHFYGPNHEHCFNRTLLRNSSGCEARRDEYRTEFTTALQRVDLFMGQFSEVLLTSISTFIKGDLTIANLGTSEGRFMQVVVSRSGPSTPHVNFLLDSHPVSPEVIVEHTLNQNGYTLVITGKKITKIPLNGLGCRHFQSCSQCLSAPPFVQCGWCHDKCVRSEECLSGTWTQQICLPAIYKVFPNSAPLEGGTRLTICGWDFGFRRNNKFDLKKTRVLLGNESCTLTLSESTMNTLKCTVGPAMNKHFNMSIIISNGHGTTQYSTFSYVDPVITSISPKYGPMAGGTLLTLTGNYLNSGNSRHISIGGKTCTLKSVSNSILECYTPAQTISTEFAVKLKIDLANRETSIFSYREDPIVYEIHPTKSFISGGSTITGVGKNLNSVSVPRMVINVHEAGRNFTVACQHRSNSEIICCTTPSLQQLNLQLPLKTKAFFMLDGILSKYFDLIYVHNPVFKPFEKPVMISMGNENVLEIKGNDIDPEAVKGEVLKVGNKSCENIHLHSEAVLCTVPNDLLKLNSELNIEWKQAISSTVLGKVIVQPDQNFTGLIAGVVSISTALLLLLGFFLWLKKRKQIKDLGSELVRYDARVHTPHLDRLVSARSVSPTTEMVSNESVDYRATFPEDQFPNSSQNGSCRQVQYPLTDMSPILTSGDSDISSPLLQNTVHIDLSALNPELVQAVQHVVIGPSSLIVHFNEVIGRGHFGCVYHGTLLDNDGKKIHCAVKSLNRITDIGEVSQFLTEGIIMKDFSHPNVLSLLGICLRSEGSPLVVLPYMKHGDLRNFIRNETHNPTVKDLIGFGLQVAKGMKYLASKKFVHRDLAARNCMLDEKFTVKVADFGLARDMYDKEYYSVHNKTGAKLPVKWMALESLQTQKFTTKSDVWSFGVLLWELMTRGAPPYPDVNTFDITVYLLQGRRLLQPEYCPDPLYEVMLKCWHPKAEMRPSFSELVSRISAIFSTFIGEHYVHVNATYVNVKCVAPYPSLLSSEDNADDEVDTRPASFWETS

As to `CNC(=O)c1ccc(-c2ccc3nnc(C(F)(F)c4ccc5nn(C)cc5c4F)n3n2)cc1F` [Example 1, 4-(3-(Difluoro(4-fluoro-2-methyl-2H-indazol-5-yl)methyl)-[1,2,4]triazolo[4,3-b]pyridazin-6-yl)-2-fluoro-N-methylbenzamide], the IC50 in assay [1] came out at 3.9 nM; in assay [2] it was 48.8 nM.
On to `CN(C)C(=O)c1ccc(-c2ccc3nnc(C(F)(F)c4ccc5nn(C)cc5c4F)n3n2)cc1F` [Example 2], for which the IC50 turned out to be 103 nM in assay [1] and 148 nM in assay [2].
The like results for `CCNC(=O)c1ccc(-c2ccc3nnc(C(F)(F)c4ccc5nn(C)cc5c4F)n3n2)cc1F` [Example 3] were, in that order, 71.5 nM and 69.3 nM.
Regarding `CC(C)NC(=O)c1ccc(-c2ccc3nnc(C(F)(F)c4ccc5nn(C)cc5c4F)n3n2)cc1F` [Example 4], the 50% inhibitory concentration (IC50) was 2.6 nM in assay [1] and 83.9 nM in assay [2].
The like results for `Cn1cc2c(F)c(C(F)(F)c3nnc4ccc(-c5ccc(C(=O)NC6CC6)c(F)c5)nn34)ccc2n1` [Example 5] were, in that order, 23.2 nM and 45.4 nM.
Taken in the same sequence, the figures for `CNC(=O)c1c(F)cc(-c2ccc3nnc(C(F)(F)c4ccc5nn(C)cc5c4F)n3n2)cc1F` [Example 6] were 9.5 nM and 36.5 nM.
`Cn1cc2c(F)c(C(F)(F)c3nnc4ccc(-c5ccc(NC(=O)C6CC6)c(F)c5)nn34)ccc2n1` [Example 7]: the IC50 was determined as 49.6 nM in assay [1] and 76.4 nM in assay [2].
`CNC(=O)c1ccc(-c2ccc3nnc(C(F)(F)c4ccc5nn(C)cc5c4F)n3n2)cn1` [Example 8] returned an IC50 in assay [1] of 122 nM.
Turning to `Cc1cncc(-c2ccc3nnc(C(F)(F)c4ccc5nn(C)cc5c4F)n3n2)c1` [Example 9], the midpoint of inhibition in assay [1], the IC50, lay at 85 nM.
In assay [1], `Cn1cc2c(F)c(C(F)(F)c3nnc4ccc(-c5cncc(F)c5)nn34)ccc2n1` [Example 10] displayed an IC50 of 142 nM.
On the same count and under the same terms, the value for `Cn1cc2c(F)c(C(F)(F)c3nnc4ccc(-c5cncc(Cl)c5)nn34)ccc2n1` [Example 11] was 42 nM.
For the compound `Cn1cc2c(F)c(C(F)(F)c3nnc4ccc(-c5ccc(C#N)nc5)nn34)ccc2n1` [Example 13], the IC50 in assay [1] was 190 nM; in assay [2] it was 182 nM.
Regarding `CC(C)n1cc(-c2ccc3nnc(C(F)(F)c4ccc5nn(C)cc5c4F)n3n2)cn1` [Example 14], the results for the IC50 in assay [1] and in assay [2] were 22.5 nM and 102 nM, respectively.
Taken in the same sequence, the figures for `COCCn1cc(-c2ccc3nnc(C(F)(F)c4ccc5nn(C)cc5c4F)n3n2)cn1` [Example 15] were 383 nM and 380 nM.
For the compound `Cn1cc2c(F)c(C(F)(F)c3nnc4ccc(-c5cnn(CC6COCO6)c5)nn34)ccc2n1` (stereo not shown) [Example 16], the concentration for half-maximal inhibition (IC50) amounted to 179 nM in assay [1] and 247 nM in assay [2].
The like results for `Cn1cc2c(F)c(C(F)(F)c3nnc4ccc(-c5ccc(S(N)(=O)=O)c(F)c5)nn34)ccc2n1` [Example 17] were, in that order, 55.6 nM and 77.6 nM.
For `CNC(=O)c1ccc(-c2ccc3nnc(C(F)(F)c4cc5cn(C)nc5cc4F)n3n2)c(F)c1` [Example 18], the IC50 in assay [1] turned out to be 206 nM; in assay [2], 90.8 nM.
Take `CNC(=O)c1ccc(-c2ccc3nnc(C(F)(F)c4cc5cn(C)nc5cc4F)n3n2)cc1F` [Example 19]: the IC50 in assay [1] was 5.7 nM; in assay [2] it was 25.6 nM.
Regarding `CC(C)NC(=O)c1ccc(-c2ccc3nnc(C(F)(F)c4cc5cn(C)nc5cc4F)n3n2)c(F)c1` [Example 20], the concentration for half-maximal inhibition (IC50) came out at 158 nM in assay [1] and 137 nM in assay [2].
Take `CN(C)C(=O)c1ccc(-c2ccc3nnc(C(F)(F)c4cc5cn(C)nc5cc4F)n3n2)cc1F` [Example 21]: the concentration for half-maximal inhibition (IC50) in assay [1] is 262 nM; in assay [2], 180 nM.
Turning to `CCNC(=O)c1ccc(-c2ccc3nnc(C(F)(F)c4cc5cn(C)nc5cc4F)n3n2)cc1F` [Example 22], the values for the IC50 in assay [1] and in assay [2] were 15.5 nM and 20.7 nM, respectively.
As for `CC(C)NC(=O)c1ccc(-c2ccc3nnc(C(F)(F)c4cc5cn(C)nc5cc4F)n3n2)cc1F` [Example 23], the IC50 in assay [1] came out at 1.1 nM; in assay [2] it was 41.6 nM.
As to `Cn1cc2cc(C(F)(F)c3nnc4ccc(-c5ccc(C(=O)NC6CC6)c(F)c5)nn34)c(F)cc2n1` [Example 24], the half-maximal inhibitory concentration (IC50) is 14.9 nM in assay [1] and 43.4 nM in assay [2].
Regarding `Cn1cc2cc(C(F)(F)c3nnc4ccc(-c5ccc(C(=O)N6CCCC6)c(F)c5)nn34)c(F)cc2n1` [Example 25], the half-inhibitory concentration (IC50) in assay [1] stood at 52.7 nM; in assay [2], 125 nM.
`Cn1cc2cc(C(F)(F)c3nnc4ccc(-c5ccc(C(=O)N6CCOCC6)c(F)c5)nn34)c(F)cc2n1` [Example 26]: the half-maximal inhibitory concentration (IC50) stood at 299 nM in assay [1] and 357 nM in assay [2].
In the case of `CN1CCN(C(=O)c2ccc(-c3ccc4nnc(C(F)(F)c5cc6cn(C)nc6cc5F)n4n3)cc2F)CC1` [Example 27], the IC50 in assay [1] was found to be 324 nM; in assay [2], 148 nM.
As to `CNC(=O)c1c(F)cc(-c2ccc3nnc(C(F)(F)c4cc5cn(C)nc5cc4F)n3n2)cc1F` [Example 28], the IC50 is 14.2 nM in assay [1] and 27.7 nM in assay [2].
Take `Cn1cc2cc(C(F)(F)c3nnc4ccc(-c5ccc(NC(=O)C6CC6)c(F)c5)nn34)c(F)cc2n1` [Example 29]: the concentration for half-maximal inhibition (IC50) came out at 7.9 nM in assay [1] and 29.5 nM in assay [2].
As for `CNC(=O)c1cc(-c2ccc3nnc(C(F)(F)c4cc5cn(C)nc5cc4F)n3n2)ccn1` [Example 30], the half-inhibitory concentration (IC50) is 45 nM in assay [1] and 51.8 nM in assay [2].
For `CNC(=O)c1ccc(-c2ccc3nnc(C(F)(F)c4cc5cn(C)nc5cc4F)n3n2)cn1` [Example 31], the results for the 50% inhibitory concentration (IC50) in assay [1] and in assay [2] were 60.6 nM and 81.4 nM, respectively.
Take `Cc1cncc(-c2ccc3nnc(C(F)(F)c4cc5cn(C)nc5cc4F)n3n2)c1` [Example 32]: the IC50 in assay [1] amounted to 37.7 nM; in assay [2], 109 nM.
Take `Cn1cc2cc(C(F)(F)c3nnc4ccc(-c5cncc(F)c5)nn34)c(F)cc2n1` [Example 33]: the half-maximal inhibitory concentration (IC50) in assay [1] was 210 nM; in assay [2], 242 nM.
Taken in the same sequence, the figures for `Cn1cc2cc(C(F)(F)c3nnc4ccc(-c5cncc(Cl)c5)nn34)c(F)cc2n1` [Example 34] were 57.6 nM and 53.2 nM.
Take `Cn1cc2cc(C(F)(F)c3nnc4ccc(-c5ccc(C#N)nc5)nn34)c(F)cc2n1` [Example 35]: the values for the 50% inhibitory concentration (IC50) in assay [1] and in assay [2] were 88.1 nM and 65 nM, respectively.
Turning to `Cc1cc(-c2ccc3nnc(C(F)(F)c4cc5cn(C)nc5cc4F)n3n2)ccn1` [Example 36], the concentration for half-maximal inhibition (IC50) in assay [1] came to 34 nM; in assay [2], 113 nM.
Taken in the same sequence, the figures for `Cn1cc(-c2ccc3nnc(C(F)(F)c4cc5cn(C)nc5cc4F)n3n2)cn1` [Example 37] were 13.7 nM and 50.7 nM.
As to `CC(C)n1cc(-c2ccc3nnc(C(F)(F)c4cc5cn(C)nc5cc4F)n3n2)cn1` [Example 38], the IC50 turned out to be 44.1 nM in assay [1] and 82.9 nM in assay [2].
On to `Cn1cc2cc(C(F)(F)c3nnc4ccc(-c5cnn(C6CCOC6)c5)nn34)c(F)cc2n1` (stereo not shown) [Example 39], for which the concentration for half-maximal inhibition (IC50) in assay [1] was 204 nM; in assay [2], 79.7 nM.
Taken in the same sequence, the figures for `COCCn1cc(-c2ccc3nnc(C(F)(F)c4cc5cn(C)nc5cc4F)n3n2)cn1` [Example 40] were 134 nM and 203 nM.
For `O=C(NCCN1CCOCC1)n1cc2cc(C(F)(F)c3nnc4ccc(-c5cnn(C6CC6)c5)nn34)c(F)cc2n1` [Example 51], in assay [2], the concentration for half-maximal inhibition (IC50) turned out to be 4130 nM.
Turning to `Nc1nc2ccc(C(F)(F)c3nnc4ccc(-c5cnn(C6CC6)c5)nn34)cc2[nH]1` [Example 52], the IC50 in assay [2] was determined as 568 nM.
